Values quoted from earlier work as cited in patent US20030198684A1 (priority 2002, published 2003).
Read-outs that look alike come from different tables or passages of the source.

Legend:
[1] = test system: young female rats; settings: constant infusion
[2] = body builders
[3] = patients on dialysis, compared with placebo
[4] = in vivo
[5] = for waking erection: Asian hypogonadal men; for sexual interest and activity, spontaneous erection: Caucasian hypogonadal men
[6] = 300 mg/wk for six weeks; TE: shoulders; ND: shoulders and chest
[7] = HIV-infected men, pharmacological doses
[8] = molecular target: T1, aromatase (Homo sapiens, UniProt P11511); settings: compared with chrysin, AG and ANG
T1 sequence (P11511 1-503): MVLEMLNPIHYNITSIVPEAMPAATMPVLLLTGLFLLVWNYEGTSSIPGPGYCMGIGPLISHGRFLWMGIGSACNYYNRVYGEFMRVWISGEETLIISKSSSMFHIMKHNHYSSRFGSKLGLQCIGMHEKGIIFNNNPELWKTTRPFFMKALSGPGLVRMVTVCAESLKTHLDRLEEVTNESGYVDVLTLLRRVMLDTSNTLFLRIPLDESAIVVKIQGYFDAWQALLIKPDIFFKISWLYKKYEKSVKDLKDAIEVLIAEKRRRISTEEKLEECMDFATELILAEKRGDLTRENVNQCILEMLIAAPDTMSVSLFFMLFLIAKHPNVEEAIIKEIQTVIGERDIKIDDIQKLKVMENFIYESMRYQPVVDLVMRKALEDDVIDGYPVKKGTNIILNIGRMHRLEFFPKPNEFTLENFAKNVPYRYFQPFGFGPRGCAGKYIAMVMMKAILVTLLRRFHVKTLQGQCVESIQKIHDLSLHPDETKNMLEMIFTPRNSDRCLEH

[9] = supplementation
[10] = test system: prostate and seminal vesicle weights
[11] = test system: levator ani muscles
[12] = supplementation; remark: listed apart in the source
[13] = in vivo; remark: listed apart in the source

C[C@]12CC[C@H](O)CC1=CC[C@@H]1[C@@H]2CC[C@]2(C)C(=O)CC[C@@H]12 [DHEA, dehydro-epiandrosterone]
plasma testosterone (50 mg dose of DHEA): restored plasma testosterone to levels similar to those observed in young women
delta 5-androstenediol (50 mg or 200 mg DHEA): small increase
plasma delta 4-androstenedione increase (50 mg or 200 mg DHEA): significant and dose dependent
plasma estrogens, particularly estradiol (50 mg or 200 mg DHEA): significant and dose dependent increase
plasma testosterone (200 mg dose of DHEA): important increase of plasma testosterone, slightly below the levels observed in normal men
increase of plasma dihydrotestosterone levels (both doses of DHEA): small at both doses

C[C@]12CC[C@H]3[C@@H](CCC4=CC(=O)CC[C@@]43C)[C@@H]1CC[C@@H]2O [testosterone]
lipid deposition or heat production [1]: did not have a significant effect
proportion of protein in the body composition [1]: increased

C[C@]12CC[C@H]3[C@@H](CCC4=CC(=O)CC[C@@H]43)[C@@H]1CC[C@@H]2O [nandrolone, 19-nor-testosterone]
decrease in HDL-choresterol and diastolic blood pressure [2]: 25-27%
lean body mass [3]: increased significantly
energy expenditure [1]: increased energy expenditure
azoospermia [4]: azoospermia (lack of sperm) associated with nandrolone use

CCCCCCC(=O)O[C@H]1CC[C@H]2[C@@H]3CCC4=CC(=O)CC[C@]4(C)[C@H]3CC[C@]12C [TE, testosterone enanthate]
waking erection [5]: increased waking erection
sexual interest and activity, spontaneous erection [5]: significant increases
body circumferences (of fifteen) [6]: significant increases

CCCCCCCCCC(=O)O[C@H]1CC[C@H]2[C@@H]3CCC4=CC(=O)CC[C@@H]4[C@H]3CC[C@]12C [nandrolone decanoate, 19-nor-testosterone decanoate]
total weight, lean body mass, body cell mass, muscle size, and strength [7]: significant gains
body circumferences (of fifteen) [6]: significant increases

COc1ccc(-c2coc3cc(O)cc(O)c3c2=O)cc1 [Biochanin A, 5,7-dihydroxy-4′-methoxyisoflavone]
aromatase inhibition (in words) [8]: inhibited aromatase, but to a lesser degree

C[C@]12CCC(=O)C=C1CC[C@@H]1[C@@H]2CC[C@]2(C)C(=O)CC[C@@H]12 [4-androstenedione]
serum testosterone [9]: produced elevations in serum testosterone

C[C@@H]1CC2=CC(=O)CC[C@@H]2[C@H]2CC[C@]3(C)[C@@H](O)CC[C@H]3[C@@H]21 [MENT, 7α-methyl-19-nor-testosterone]
androgenic potency relative to testosterone [10]: four- to five-times more androgenic than testosterone
waking erection [5]: increased waking erection
sexual interest and activity, spontaneous erection [5]: significant increases
anabolic potency relative to testosterone [11]: ten-times as potent as testosterone

C[C@]12CC[C@H]3[C@@H](CC=C4C[C@@H](O)CC[C@@]43C)[C@@H]1CC[C@@H]2O [5-androstenediol]
lipid deposition or heat production [1]: did not have a significant effect
proportion of protein in the body composition [1]: increased

C[C@]12CC[C@H]3[C@@H](CCC4=C[C@@H](O)CC[C@@]43C)[C@@H]1CC[C@@H]2O [4-androstenediol]
urine testosterone concentration relative to 4androstenedione [12]: 10 fold
human serum testosterone levels [13]: produce elevations in human serum testosterone levels
